Data reported in ChEMBL document CHEMBL3808353, “Targeting the Follicle Stimulating Hormone Receptor (FSHR) To Treat Fertility Disorders” (ACS Med Chem Lett, 2016).

Key:
[1] = molecular target: T1, Follicle-stimulating hormone receptor (Homo sapiens, UniProt P23945); assay: Positive allosteric modulation of FSHR (unknown origin) expressed in CHO cells assessed as FSH-induced cAMP accumulation incubated for 1 hr by HTRF assay; type: functional, cell-based
T1 sequence (P23945 whole entry): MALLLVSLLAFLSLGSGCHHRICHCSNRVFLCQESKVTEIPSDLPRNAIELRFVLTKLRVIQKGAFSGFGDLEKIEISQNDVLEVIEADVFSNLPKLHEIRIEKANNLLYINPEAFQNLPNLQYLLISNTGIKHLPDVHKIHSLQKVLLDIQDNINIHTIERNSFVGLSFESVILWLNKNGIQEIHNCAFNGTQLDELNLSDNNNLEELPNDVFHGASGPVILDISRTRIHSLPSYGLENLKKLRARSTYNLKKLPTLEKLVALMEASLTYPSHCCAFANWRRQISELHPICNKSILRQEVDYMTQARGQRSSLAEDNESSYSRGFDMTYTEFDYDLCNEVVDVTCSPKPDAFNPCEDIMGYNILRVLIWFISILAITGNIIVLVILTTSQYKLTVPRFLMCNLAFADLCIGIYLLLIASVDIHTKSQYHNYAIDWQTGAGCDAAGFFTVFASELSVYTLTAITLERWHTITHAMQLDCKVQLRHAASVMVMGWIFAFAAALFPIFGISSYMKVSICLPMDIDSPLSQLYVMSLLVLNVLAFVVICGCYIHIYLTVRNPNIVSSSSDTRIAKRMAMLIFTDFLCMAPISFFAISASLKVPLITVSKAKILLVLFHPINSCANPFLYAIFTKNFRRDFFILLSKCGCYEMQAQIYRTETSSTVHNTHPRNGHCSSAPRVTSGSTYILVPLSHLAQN

[2] = molecular target: T1, Follicle-stimulating hormone receptor; assay: Positive allosteric modulation of human FSHR expressed in rat granulosa cells assessed as FSH-induced estradiol production after 72 hrs by radioimmunossay; type: cell-based

Compound	EC50 [1] [nM]	EC50 [2] [nM]
Cc1ccccc1N1CCN(c2ccc(C(=O)NCCCN3CCCC3=O)cc2NC(=O)c2coc(C3CC3)n2)CC1	< 100	100
Cc1ccccc1N1CCN(c2ccc(C(=O)NCCCc3nn[nH]n3)cc2NC(=O)c2coc(C3CC3)n2)CC1	< 100	100
Cc1ccccc1N1CCN(c2ccc(C(=O)NCCCN3CCCC3=O)cc2NC(=O)c2ccco2)CC1	< 100	> 1000
C=CCNC(=O)NCCCNC(=O)c1ccc(N2CCN(c3ccccc3C)CC2)c(NC(=O)c2ccco2)c1	< 100	
Cc1ccccc1N1CCN(c2ccc(C(=O)NCCCN3CCCC3=O)cc2NC(=O)c2ccc(F)cc2)CC1	100	100
Cc1ccccc1N1CCN(c2ccc(C(=O)N[C@H]3CCC[C@H](O)C3)cc2NC(=O)c2coc(C3CC3)n2)CC1	< 100	
